Values joined by “and” are separate entries in the source; they are usually repeats but may differ in a detail not shown here. Equal values may be shown once. Inconclusive results and toxic doses are left out.
Test system: P388 leukemia ip, CD2F1 mice, survival T/C
Test: NCI In Vivo Anticancer Drug Screen. Data for tumor model P388 Leukemia (intraperitoneal) in CD2F1 (CDF1) mice
Conditions: endpoint: median survival time, higher = longer survival
Summary of the method: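 Mice carrying the transplanted tumor received test compound or vehicle. Survival was recorded in each group, and the value is the treated-group measurement divided by that of the vehicle-treated control group.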

[1] = dose: 50.0 mg/kg/injection, schedule: Q01DX005 (ip), vehicle: Klucel (hydroxypropylcellulose) (HPC)
[2] = dose: 100.0 mg/kg/injection, schedule: Q01DX005 (ip), vehicle: Klucel (hydroxypropylcellulose) (HPC)
[3] = dose: 50.0 mg/kg/injection, schedule: Q01DX009 (ip), vehicle: saline
[4] = dose: 100.0 mg/kg/injection, schedule: Q01DX009 (ip), vehicle: saline
[5] = dose: 200.0 mg/kg/injection, schedule: Q01DX009 (ip), vehicle: saline
[6] = dose: 50.0 mg/kg/injection, schedule: Q01DX009 (ip), vehicle: Klucel (hydroxypropylcellulose) (HPC)
[7] = dose: 100.0 mg/kg/injection, schedule: Q01DX009 (ip), vehicle: Klucel (hydroxypropylcellulose) (HPC)
[8] = dose: 50.0 mg/kg/injection, schedule: Q01DX009 (ip), vehicle: saline with Tween-80
[9] = dose: 100.0 mg/kg/injection, schedule: Q01DX009 (ip), vehicle: saline with Tween-80
[10] = dose: 60.0 mg/kg/injection, schedule: Q01DX005 (ip), vehicle: saline with Tween-80
[11] = dose: 120.0 mg/kg/injection, schedule: Q01DX005 (ip), vehicle: saline with Tween-80
[12] = dose: 240.0 mg/kg/injection, schedule: Q01DX005 (ip), vehicle: saline with Tween-80

C/C=C(/C)C(=O)OC1C[C@@]2(C)OC2C(OC(C)=O)[C@@]2(C)CC[C@@](O)(C(C)C)C12 (stereo partly specified)
T/C (dose: 35.0 mg/kg/injection, schedule: Q01DX005 (ip), vehicle: saline with Tween-80): 101 % of control
T/C (dose: 70.0 mg/kg/injection, schedule: Q01DX005 (ip), vehicle: saline with Tween-80): 96 % of control
T/C (dose: 140.0 mg/kg/injection, schedule: Q01DX005 (ip), vehicle: saline with Tween-80): 90 % of control

COC1=C2CCC3c4cc(OC)c(OC)cc4CC[N+]3=C2CC1 (stereo unspecified)
T/C (dose: 25.0 mg/kg/injection, schedule: Q01DX005 (ip), vehicle: Klucel (hydroxypropylcellulose) (HPC)): 97 % of control
T/C [1]: 99 % of control
T/C [2]: 113 % of control

Nc1nc(N)n2c(N)nnc2n1
T/C [3]: 105 % of control
T/C [4]: 107 % of control
T/C [5]: 102 % of control

COc1cc2ccc3c(c2cc1OC)CNCC3
T/C [3]: 100 % of control
T/C [4]: 100 % of control

C=C(C)C(=O)OC1C/C(CO)=C\C(OC(C)=O)C/C(C)=C/C2OC(=O)C(=C)C21 (stereo unspecified)
T/C (dose: 3.75 mg/kg/injection, schedule: Q01DX009 (ip), vehicle: saline + alcohol): 113 % of control
T/C (dose: 7.5 mg/kg/injection, schedule: Q01DX009 (ip), vehicle: saline + alcohol): 115 % of control
T/C (dose: 15.0 mg/kg/injection, schedule: Q01DX009 (ip), vehicle: saline + alcohol): 120 % of control

c1ccc2c(SCCCCCCSc3c4ccccc4nc4ccccc34)c3ccccc3nc2c1
T/C (dose: 60.0 mg/kg/injection, schedule: Q01DX005 (ip), vehicle: Klucel (hydroxypropylcellulose) (HPC)): 90 % of control
T/C (dose: 120.0 mg/kg/injection, schedule: Q01DX005 (ip), vehicle: Klucel (hydroxypropylcellulose) (HPC)): 86 % of control

Cc1ccc(-c2cc(-c3cc(-c4ccc(C)cc4)nc(N)n3)nc(N)n2)cc1
T/C (dose: 60.0 mg/kg/injection, schedule: Q01DX005 (ip), vehicle: saline): 90 % of control
T/C (dose: 120.0 mg/kg/injection, schedule: Q01DX005 (ip), vehicle: saline): 96 % of control
T/C (dose: 240.0 mg/kg/injection, schedule: Q01DX005 (ip), vehicle: saline): 97 % of control

O=c1[nH]ccc2nncn12
T/C (dose: 100.0 mg/kg/injection, schedule: Q01DX001 (ip), vehicle: saline with Tween-80): 100 % of control
T/C (dose: 200.0 mg/kg/injection, schedule: Q01DX001 (ip), vehicle: saline with Tween-80): 106 % of control
T/C (dose: 400.0 mg/kg/injection, schedule: Q01DX001 (ip), vehicle: saline with Tween-80): 99 % of control

O=c1/c(=C/c2ccc(Cl)cc2)sc2nc(-c3ccccc3)nn12
T/C [6]: 94 % of control
T/C [7]: 95 % of control
T/C (dose: 200.0 mg/kg/injection, schedule: Q01DX009 (ip), vehicle: Klucel (hydroxypropylcellulose) (HPC)): 101 % of control

c1ccc2cc3c(ccc4ccccc43)cc2c1
T/C (dose: 25.0 mg/kg/injection, schedule: Q04DX003 (ip), vehicle: other): 99 % of control
T/C [8]: 100 % of control
T/C (dose: 50.0 mg/kg/injection, schedule: Q04DX003 (ip), vehicle: other): 104 % of control
T/C [9]: 97 % of control
T/C (dose: 100.0 mg/kg/injection, schedule: Q04DX003 (ip), vehicle: other): 99 % of control
T/C (dose: 200.0 mg/kg/injection, schedule: Q01DX009 (ip), vehicle: saline with Tween-80): 103 % of control
T/C (dose: 200.0 mg/kg/injection, schedule: Q04DX003 (ip), vehicle: other): 96 % of control
T/C (dose: 400.0 mg/kg/injection, schedule: Q04DX003 (ip), vehicle: other): 96 % of control

[C-]#[O+].[C-]#[O+].[C-]#[O+].[C-]#[O+].[Mo].c1cnc2c(c1)ccc1cccnc12
T/C (dose: 6.25 mg/kg/injection, schedule: Q01DX009 (ip), vehicle: Klucel (hydroxypropylcellulose) (HPC)): 100 % of control
T/C (dose: 12.5 mg/kg/injection, schedule: Q01DX009 (ip), vehicle: Klucel (hydroxypropylcellulose) (HPC)): 95 % of control
T/C (dose: 25.0 mg/kg/injection, schedule: Q01DX009 (ip), vehicle: Klucel (hydroxypropylcellulose) (HPC)): 93 % of control
T/C [6]: 95 % of control

COc1ccc(/C=C/c2ccc(S(=O)(=O)c3ccc(/C=C/c4ccc(OC)cc4)c(NC(C)=O)c3)cc2NC(C)=O)cc1
T/C (dose: 25.0 mg/kg/injection, schedule: Q01DX009 (ip), vehicle: saline with Tween-80): 97 % of control
T/C [8]: 97 % of control
T/C [9]: 92 % of control

Cc1cccc(OCCOC(=O)Nc2cccc(C(F)(F)F)c2)c1
T/C [10]: 99 % of control
T/C [11]: 96 % of control
T/C [12]: 96 % of control

COc1cc(C(c2c(O)c3ccccc3oc2=O)N2CCCC2)cc(OC)c1OC (stereo unspecified)
T/C [10]: 107 % of control
T/C [11]: 101 % of control
T/C [12]: 104 % of control

Nc1ncn[nH]1
T/C [3]: 99 % of control and 105 % of control
T/C [4]: 98 % of control and 97 % of control
T/C [5]: 100 % of control and 106 % of control
T/C (dose: 400.0 mg/kg/injection, schedule: Q01DX009 (ip), vehicle: saline): 99 % of control

O=C1OCc2cc(O)ccc21
T/C [1]: 102 % of control
T/C [2]: 100 % of control
T/C (dose: 200.0 mg/kg/injection, schedule: Q01DX005 (ip), vehicle: Klucel (hydroxypropylcellulose) (HPC)): 104 % of control

O=S1(=O)CCCCC1
T/C (dose: 50.0 mg/kg/injection, schedule: Q04DX003 (ip), vehicle: saline): 100 % of control
T/C (dose: 100.0 mg/kg/injection, schedule: Q04DX003 (ip), vehicle: saline): 100 % of control
T/C (dose: 200.0 mg/kg/injection, schedule: Q04DX003 (ip), vehicle: saline): 110 % of control

Cc1c2cc[n+](CCO)cc2c(C)c2c1[nH]c1ccc(O)cc12
T/C (dose: 0.79 mg/kg/injection, schedule: Q04DX003 (ip), vehicle: saline): 155 % of control
T/C (dose: 1.56 mg/kg/injection, schedule: Q04DX003 (ip), vehicle: saline): 165 % of control
T/C (dose: 3.12 mg/kg/injection, schedule: Q04DX003 (ip), vehicle: saline): 165 % of control
T/C (dose: 6.25 mg/kg/injection, schedule: Q04DX003 (ip), vehicle: saline): 155 % of control
T/C (dose: 12.5 mg/kg/injection, schedule: Q04DX003 (ip), vehicle: saline): 100 % of control
T/C (dose: 25.0 mg/kg/injection, schedule: Q04DX003 (ip), vehicle: saline): 92 % of control

FC(F)(F)c1ccc(Cl)c(N=Cc2ccc(C=Nc3cc(C(F)(F)F)ccc3Cl)cc2)c1
T/C [6]: 91 % of control
T/C [7]: 98 % of control

COc1ccc2nc3c(=O)[nH]c(=O)nc-3n(CC(O)C(O)C(O)CO)c2c1 (stereo unspecified)
T/C (dose: 25.0 mg/kg/injection, schedule: Q01DX001 (ip), vehicle: saline): 104 % of control
T/C (dose: 50.0 mg/kg/injection, schedule: Q01DX001 (ip), vehicle: saline): 104 % of control
T/C (dose: 100.0 mg/kg/injection, schedule: Q01DX001 (ip), vehicle: saline): 107 % of control
T/C (dose: 100.0 mg/kg/injection, schedule: Q04DX002 (ip), vehicle: saline): 109 % of control

Cc1cc(O)c2c(c1)C(=O)c1cccc(O)c1C2=O
T/C (dose: 6.25 mg/kg/injection, schedule: Q01DX009 (ip), vehicle: saline): 100 % of control
T/C (dose: 12.5 mg/kg/injection, schedule: Q01DX009 (ip), vehicle: saline): 111 % of control
T/C (dose: 25.0 mg/kg/injection, schedule: Q01DX009 (ip), vehicle: saline): 117 % of control
T/C [3]: 108 % of control

CC1(C)C(=O)c2ccccc2-c2ccccc21
T/C (dose: 50.0 mg/kg/injection, schedule: Q01DX005 (ip), vehicle: saline with Tween-80): 101 % of control
T/C (dose: 100.0 mg/kg/injection, schedule: Q01DX005 (ip), vehicle: saline with Tween-80): 104 % of control
T/C (dose: 200.0 mg/kg/injection, schedule: Q01DX005 (ip), vehicle: saline with Tween-80): 103 % of control

CC(=O)OCC1=C(c2ccccc2)S(=O)(=O)c2ccccc2C1=O
T/C (dose: 12.5 mg/kg/injection, schedule: Q01DX005 (ip), vehicle: saline with Tween-80): 108 % of control
T/C (dose: 25.0 mg/kg/injection, schedule: Q01DX005 (ip), vehicle: saline with Tween-80): 106 % of control

Cc1cn(CCCCCOc2c3ccoc3cc3oc(=O)ccc23)c(=O)[nH]c1=O
T/C (dose: 100.0 mg/kg/injection, schedule: Q01DX001 (ip), vehicle: Klucel (hydroxypropylcellulose) (HPC)): 92 % of control
T/C (dose: 200.0 mg/kg/injection, schedule: Q01DX001 (ip), vehicle: Klucel (hydroxypropylcellulose) (HPC)): 90 % of control
T/C (dose: 400.0 mg/kg/injection, schedule: Q01DX001 (ip), vehicle: Klucel (hydroxypropylcellulose) (HPC)): 87 % of control

Cc1c(-c2nnc(N)o2)cc([N+](=O)[O-])cc1[N+](=O)[O-]
T/C [10]: 98 % of control
T/C [11]: 100 % of control
T/C [12]: 99 % of control

CCc1c(N2CCOCC2)c(C#N)c2nc3ccccc3n2c1N1CCOCC1
T/C [10]: 99 % of control
T/C [11]: 95 % of control
T/C [12]: 98 % of control

Source: PubChem BioAssay AID330 (DTP/NCI, 2004)
